Laboratory results as given in publication PMC5321741, “Arylmethylamino steroids as antiparasitic agents” (Nature Communications, 2017).
Where two headings read alike, the source gives them in different places.

Columns and labels:
[1] = plasma protein binding (rapid equilibrium dialysis); format: in vitro ADME; settings: read-out: Plasma Protein Binding % bound (converted)
Experimental: Pharmacokinetic data were obtained for compound 1o at the Sanford-Burnham Medical Research Institute according to established procedures. Compound solubility in an aqueous solution was measured using an automated kinetic solubility method. The concentration of the compound in a saturated pH-buffered aqueous solution was determined via UV absorbance (250–498 nm) and compared with the spectra of a precipitation-free reference solution. The plasma stability of the compound was determined at a single concentration using species-specific plasma. The percentage of parent compound remaining after 3 h was determined via LC-MS/MS. The percentage of compound 1o bound to plasma proteins was determined through rapid equilibrium dialysis and quantified via LC-MS/MS. Metabolic stability of the compound was determined at a single concentration using species-specific liver microsomes that contained cytochrome P450s, flavin-monooxygenases, carboxyl-esterases, epoxide hydrolases, and other drug-metabolizing enzymes. The quantification was carried out via LC-MS/MS. Membrane permeability of compound 1o was measured using an in vitro model for the passive transport from the gastrointestinal tract into the blood system. A double-sink parallel artificial membrane permeability assay PAMPA, in a 96-well format was employed.

[2] = tested on: hGrx1-roGFP2 in P. falciparum 3D7; experiment: cytosolic glutathione redox sensor in parasites; format: cell-based, Plasmodium falciparum; settings: for oxidizing effect, change of 405/488 nm fluorescence ratio: 4 h
Experimental: To further study the mechanism of action of the steroid compounds and evaluate the potential involvement of redox stress, compound 1o was tested in cell culture on the chloroquine-sensitive P. falciparum 3D7 strain expressing the cytosolic glutathione redox sensor hGrx1-roGFP2 (Supplementary Note 2). […]
signals at 405/475 nm were calculated and plotted against time and/or concentration of compound 1o or redox active compounds. Data from three independent experiments were […]
100 µM for 4 h and 24 h incubations. Transfection of the Pf3D7 strain with the redox sensor was carried out, and the parasites were cultured as described under constant drug pressure with 5 nM WR99210 (Jacobus Pharmaceuticals, New Jersey, USA).45,46 P. falciparum trophozoites were enriched via magnet separation.47 Parasitemia was counted by using Giemsa-stained blood smears. The IC50 of compound 1o on P. falciparum 3D7 asexual blood stages was verified to be about 5 nM in an additional 72 h [3H] incorporation assay45 directly before the experiment. The effect of compound 1o on P. falciparum was investigated in 4 h and 24 h incubations. For 4 h experiments, trophozoite stage parasites (26-30 h post invasion) of 3D7[hGrx1-roGFP2] (6-8% parasitemia) were magnetically enriched (Miltenyi Biotec, Germany), counted by using the improved Neubauer hemocytometer (Brand GmbH, Germany), and returned to cell culture (at 0.5 x 10^6 trophozoites/µl) for at least 1 h to recover.
1.0 x 10^6 cells in 100 µl cell culture medium were placed into LoBind tubes (Eppendorf) for 4 h incubation experiments. The parasites were treated with compound 1o at 50 x, and 100 x IC and with mefloquine (MQ) as a standard antimalarial drug at 1 µM (IC = 8 nM)45 for 4 h […]
for 15 min at 37 °C. For 24 h experiments, a 5 ml culture (6-8% parasitemia) of ring stage parasites (6-10 h post invasion) was treated with compound 1o at 4 x, 10 x, 20 x IC50 and with 100 nM MQ. Prior to enrichment, cysteines were blocked with 2 mM NEM. For 4 h and 24 h experiments, cells were washed after incubation with pre-warmed Ringer’s solution […]
Hepes, 1 mM NaH2PO4, pH 7.4) and were seeded onto poly-L-lysine-coated µ-slides VI (Ibidi, Martinsried, Germany). A Leica confocal system TCS SP5 inverted microscope equipped with the objective HCX PL APO 63.0x1.30 GLYC 37 °C UV connected to a 37 °C temperature chamber was used. The argon laser power was set to 20%; scanning was performed at 400 Hz frequency and at a 512 × 512 pixel resolution. The smart gain and […]
smart offset were 950 V and -0.9%, respectively. With a sequential scan, we excited the sensor at 405 nm and at 488 nm and detected emissions at 500-550 nm. Laser intensity for both lines was adjusted to match the full dynamic range of the probe to the dynamic range of the detector (405 nm: 12%, 488 nm: 4%). Autofluorescence images were simultaneously taken at ex 405 nm / em 430-450 nm and individually defined together with the background for every image, but no fluorescence signal could be detected. All experiments included non- […]
and 10 mM DTT (2 min incubation), respectively, prior to blocking with NEM. Only parasites showing fluorescent signals at both 405 and 488 nm excitation and an intact host cell were chosen for analysis. Each experiment was carried out three times. At least 10 parasites were analyzed, resulting in at least 30 experimental values per incubation. The Leica LAS AF Lite software for fluorescence analysis was used. The 405/488 nm ratio was calculated. The obtained ratio values were normalized to the control ratio value, which was set to 100. The graphs were plotted using the GraphPad Prism 5 software (San Diego, CA, USA). One way-ANOVA test with 95% confidence intervals with the Dunnett’s Multiple Comparison Test was applied for statistical analysis of significance (*, p < 0.05; **, p < 0.01; ***, p < 0.001). […]
with 1 µM MQ. 24 h incubation (Supplementary Figure 8 panel B) with compound 1o resulted in a higher increase of the fluorescence ratio in a concentration-dependent manner. […]

COc1ccc2c(c1)CCC1C2CC[C@@]2(C)C1CC[C@H]2NCc1cc2ccccc2cc1O (stereo partly drawn) [1o]
fraction unbound at 1 µM ([1]; Human): 0.0087 | fraction unbound at 10 µM ([1]; Human): 0.0094 | fraction unbound at 1 µM ([1]; Mouse): 0.0094 | fraction unbound at 10 µM ([1]; Mouse): 0.0107 | change of 405/488 nm fluorescence ratio ([2]; 20 nM (4 x IC50), 24 h): 1.8 fold | change of 405/488 nm fluorescence ratio ([2]; 100 nM, 24 h): 2.4 fold | oxidizing effect, change of 405/488 nm fluorescence ratio ([2]; 250 nM (50 x IC50)): approximately 1.5 fold | oxidizing effect, change of 405/488 nm fluorescence ratio ([2]; 500 nM (100 x IC50)): approximately 1.5 fold | redox ratio of the probe ([2]; 20, 50 and 100 nM, 24 h, not significant): dose-dependent increase of the redox ratio of the probe
